Measurements taken from patent EP0090603A2, “Antibacterial compounds” (BEECHAM GROUP PLC, priority 1982, dated 1983).
Values after ≈ are worked out from the molar mass of the structure shown.

Experiments:
M. suipneumoniae MS 16 = experiment: MIC against Mycoplasma, in vitro agar dilution; assay type: cell-based; settings: Mesomycoplasma hyopneumoniae, MS16, 144 h; Friis broth solidified with 0.9% agarose, 10^3 to 10^5 C.F.U., 6 days at 37°C; read-out: MIC's against M. suipneumoniae MS 16
[1] = tested on: M. suipneumoniae PW/C/210; experiment: MIC against Mycoplasma, in vitro agar dilution; assay type: cell-based; settings: Mesomycoplasma hyopneumoniae, 144 h; Friis broth solidified with 0.9% agarose, 10^3 to 10^5 C.F.U., 6 days at 37°C; read-out: MIC's against M. suipneumoniae PW/C/210
M. suipneumoniae TAM 6N = experiment: MIC against Mycoplasma, in vitro agar dilution; assay type: cell-based; settings: Mesomycoplasma hyopneumoniae, TAM6N, 144 h; Friis broth solidified with 0.9% agarose, 10^3 to 10^5 C.F.U., 6 days at 37°C; read-out: MIC's against M. suipneumoniae TAM 6N
[2] = tested on: M. suipneumoniae ATCC 25095; experiment: MIC against Mycoplasma, in vitro agar dilution; assay type: cell-based; settings: Mesomycoplasma hyopneumoniae, ATCC25095, 144 h; Friis broth solidified with 0.9% agarose, 10^3 to 10^5 C.F.U., 6 days at 37°C; read-out: MIC's against M. suipneumoniae ATCC 25095
[3] = tested on: M. suipneumoniae NCTC 10110; experiment: MIC against Mycoplasma, in vitro agar dilution; assay type: cell-based; settings: Mesomycoplasma hyopneumoniae, NCTC10110, 144 h; Friis broth solidified with 0.9% agarose, 10^3 to 10^5 C.F.U., 6 days at 37°C; read-out: MIC's against M. suipneumoniae NCTC 10110
[4] = tested on: M. hyosynoviae ATCC 25591; experiment: MIC against Mycoplasma, in vitro agar dilution; assay type: cell-based; settings: 144 h; Friis broth solidified with 0.9% agarose, 10^3 to 10^5 C.F.U., 6 days at 37°C; read-out: MIC's against M. hyosynoviae ATCC 25591
[5] = tested on: M. bovigenitalium ATCC 14173; experiment: MIC against Mycoplasma, in vitro agar dilution; assay type: cell-based; settings: 144 h; Friis broth solidified with 0.9% agarose, 10^3 to 10^5 C.F.U., 6 days at 37°C; read-out: MIC's against M. bovigenitalium ATCC 14173
M. dispar NCTC 10125 = experiment: MIC against Mycoplasma, in vitro agar dilution; assay type: cell-based; settings: 144 h; Friis broth solidified with 0.9% agarose, 10^3 to 10^5 C.F.U., 6 days at 37°C; read-out: MIC's against M. dispar NCTC 10125
E. coli E1 = experiment: MIC against Veterinary Bacteria, in vitro agar dilution; settings: Escherichia coli, E1, 18 h, read-out: MIC's against E. coli E1
Description: (§1) The activity of the compounds of the Examples against various veterinarily important bacteria, was assayed in vitro using two-fold serial dilutions in Diagnostic Sensitivity Test Agar inoculated with 10^4 organisms.

Bord. bronchiseptica B09 = experiment: as above; settings: Bordetella bronchiseptica, B09, 18 h, read-out: MIC's against Bord. bronchiseptica B09
Description: as §1

Past. multocida PA1 = experiment: as above; settings: Pasteurella multocida, PA1, 18 h, read-out: MIC's against Past. multocida PA1
Description: as §1

Past. haemolytica PA5 = experiment: as above; settings: Mannheimia haemolytica, PA5, 18 h, read-out: MIC's against Past. haemolytica PA5
Description: as §1

Strep. dysgalactiae SPD1 = experiment: as above; settings: Streptococcus dysgalactiae, SPD1, 18 h, read-out: MIC's against Strep. dysgalactiae SPD1
Description: as §1

Row | Structure (SMILES) | MIC (M. suipneumoniae MS 16) [µg/mL] | MIC [1] [µg/mL] | MIC (M. suipneumoniae TAM 6N) [µg/mL] | MIC [2] [µg/mL] | MIC [3] [µg/mL] | MIC [4] [µg/mL] | MIC [5] [µg/mL] | MIC (M. dispar NCTC 10125) [µg/mL] | MIC (E. coli E1) [µg/mL] | MIC (Bord. bronchiseptica B09) [µg/mL] | MIC (Past. multocida PA1) [µg/mL] | MIC (Past. haemolytica PA5) [µg/mL] | MIC (Strep. dysgalactiae SPD1) [µg/mL]
1 | COC(=O)C(C)=C(C)CC1OCC(CC2OC2C(C)C(C)O)C(O)C1O [Example 2, Methyl 4-[5S-(2S,3S-epoxy-5S-hydroxy-4S-methylhexyl)-3R,4R-dihydroxytetrahydropyran-2S-yl]-2,3-dimethylbut-2(E)-enoate] | 5 (≈ 13.4 µM) | 5 (≈ 13.4 µM) | 10 (≈ 26.8 µM) | 5 (≈ 13.4 µM) | 5 (≈ 13.4 µM) | 5 (≈ 13.4 µM) | 0.5 (≈ 1.34 µM) | 1 (≈ 2.68 µM) | > 80 | 40 (≈ 107 µM) | 10 (≈ 26.8 µM) | 40 (≈ 107 µM) | 40 (≈ 107 µM)
2 | CCOC(=O)C(C)=C(C)CC1OCC(CC2OC2C(C)C(C)O)C(O)C1O [Example 1, Ethyl 4-[5S-(2S,3S-epoxy-5S-hydroxy-4S-methylhexyl)-3R,4R-dihydroxytetrahydropyran-2S-yl]-2,3-dimethylbut-2(E)-enoate] | 0.5 (≈ 1.29 µM) | 0.5 (≈ 1.29 µM) | 2.5 (≈ 6.47 µM) | 1 (≈ 2.59 µM) | 1 (≈ 2.59 µM) | 1 (≈ 2.59 µM) | 0.05 (≈ 0.129 µM) | 0.25 (≈ 0.647 µM) | > 80 | 80 (≈ 207 µM) | 2.5 (≈ 6.47 µM) | 20 (≈ 51.7 µM) | 5 (≈ 12.9 µM)
3 | CC(CC1OCC(CC2OC2C(C)C(C)O)C(O)C1O)=C(C)C(=O)OCc1cccc([N+](=O)[O-])c1 [Example 3, m-Nitrobenzyl 4-[5S-(2S,3S-epoxy-5S-hydroxy-4S-methylhexyl)-3R,4R-dihydroxytetrahydropyran-2S-yl]-2,3-di-methylbut-2(E)-enoate] | 0.025 (≈ 0.0507 µM) | 0.025 (≈ 0.0507 µM) | 0.1 (≈ 0.203 µM) | 0.025 (≈ 0.0507 µM) | 0.05 (≈ 0.101 µM) | 0.25 (≈ 0.507 µM) | 0.025 (≈ 0.0507 µM) | < 0.01 | > 80 | 80 (≈ 162 µM) | 2.5 (≈ 5.07 µM) | 10 (≈ 20.3 µM) | 0.312 (≈ 0.632 µM)
4 | CC(CC1OCC(CC2OC2C(C)C(C)O)C(O)C1O)=C(C)C(=O)O [Example 4, Sodium 4-[5S-(2S, 35-epoxy-5S-hydroxy-4S-methylhexyl)-3R,4R-dihydroxytetrahydropyran-2S-yl]-2,3-dimethylbut-2(E)-enoate] | 0.1 | 0.1 | 0.25 | 0.25 | 0.25 | 0.25 | 0.05 | 0.05 | > 80 | 40 | 5 | 10 | 1.25
